# Source: US4401660A, “Ester derivatives of 5-O-mycaminosyl tylonolide and method of using same” (Eli Lilly and Company, priority 1981, dated 1983)
# Where two headings read alike, the source gives them in different places.
# Assays:
# [1] = tested on: Streptococcus pyogenes C203; assay: ED50 in mice with experimental infections (Table IV); format: in vivo; details: doses given 1 and 4 hours postinfection; for ED50: Streptococcus pyogenes
# Procedure: The OMT ester derivatives of this invention have shown in vivo antimicrobial activity against experimental bacterial infections caused by gram-positive bacteria. When two doses of test compound were administered to mice with experimental infections, the activity observed was measured as an ED50 value [effective dose in mg/kg to protect 50% of the test animals: see Warren Wick, et al., J. Bacteriol. 81, 233-235 (1961)].
# ^a mg/kg × 2; doses given 1 and 4 hours postinfection
# [2] = tested on: Staphylococcus aureus V41; assay: MIC, standard agar-dilution assay (Table II); format: cell-based; design: unit not given here; details: Staphylococcus aureus V41, penicillin-resistant strain
# Procedure: (§1) The MIC's in Table II were determined by standard agar-dilution assays. The MIC's in Table III were obtained using a conventional broth-dilution microtiter test.
# [3] = tested on: Streptococcus Group D X66; assay: MIC, standard agar-dilution assay (Table II); format: cell-based; design: unit not given here
# Procedure: as §1
# [4] = tested on: Staphylococcus epidermidis EPI1; assay: MIC, standard agar-dilution assay (Table II); format: cell-based; design: unit not given here
# Procedure: as §1
# [5] = tested on: Staphylococcus epidermidis EPI2; assay: MIC, standard agar-dilution assay (Table II); format: cell-based; design: unit not given here
# Procedure: as §1
# [6] = tested on: Streptococcus Group D 9960; assay: MIC, standard agar-dilution assay (Table II); format: cell-based; design: unit not given here
# Procedure: as §1
# [7] = tested on: Streptococcus pyogenes C203; assay: MIC, standard agar-dilution assay (Table II); format: cell-based; design: unit not given here
# Procedure: as §1
# [8] = tested on: Staphylococcus aureus X1.1; assay: MIC, standard agar-dilution assay (Table II); format: cell-based; design: unit not given here
# Procedure: as §1
# [9] = tested on: Streptococcus pneumoniae Park I; assay: MIC, standard agar-dilution assay (Table II); format: cell-based; design: unit not given here
# Procedure: as §1
# [10] = tested on: Staphylococcus aureus S13E; assay: MIC, standard agar-dilution assay (Table II); format: cell-based; design: unit not given here
# Procedure: as §1
# [11] = tested on: Staphylococcus aureus X400; assay: MIC, standard agar-dilution assay (Table II); format: cell-based; design: unit not given here; details: Staphylococcus aureus X400, methicillin-resistant strain
# Procedure: as §1
# [12] = tested on: Mycoplasma gallisepticum; assay: MIC, broth-dilution microtiter test (Table III); format: cell-based; design: unit not given here
# Procedure: as §1
# [13] = tested on: Pasteurella multocida 68C; assay: MIC, broth-dilution microtiter test (Table III); format: cell-based; design: unit not given here
# Procedure: as §1
# [14] = tested on: Mycoplasma hyorhinis; assay: MIC, broth-dilution microtiter test (Table III); format: cell-based; design: unit not given here
# Procedure: as §1
# [15] = tested on: Pasteurella multocida 40G; assay: MIC, broth-dilution microtiter test (Table III); format: cell-based; design: unit not given here
# Procedure: as §1
# [16] = tested on: Pasteurella multocida 17E; assay: MIC, broth-dilution microtiter test (Table III); format: cell-based; design: unit not given here; details: bovine isolate
# Procedure: as §1
# [17] = tested on: Pasteurella multocida 22A; assay: MIC, broth-dilution microtiter test (Table III); format: cell-based; design: unit not given here
# Procedure: as §1
# [18] = tested on: Pasteurella multocida 60A; assay: MIC, broth-dilution microtiter test (Table III); format: cell-based; design: unit not given here; details: avian isolate
# Procedure: as §1
# [19] = tested on: Streptococcus sp. 80; assay: MIC, broth-dilution microtiter test (Table III); format: cell-based; design: unit not given here
# Procedure: as §1
# [20] = tested on: Mycoplasma synoviae; assay: MIC, broth-dilution microtiter test (Table III); format: cell-based; design: unit not given here
# Procedure: as §1
# [21] = tested on: Pasteurella haemolytica 22C; assay: MIC, broth-dilution microtiter test (Table III); format: cell-based; design: unit not given here
# Procedure: as §1
# [22] = tested on: Pasteurella haemolytica 23C; assay: MIC, broth-dilution microtiter test (Table III); format: cell-based; design: unit not given here
# Procedure: as §1
# [23] = tested on: Pasteurella haemolytica 41D; assay: MIC, broth-dilution microtiter test (Table III); format: cell-based; design: unit not given here
# Procedure: as §1
# [24] = tested on: Staphylococcus aureus; assay: MIC, broth-dilution microtiter test (Table III); format: cell-based; design: unit not given here
# Procedure: as §1
# [25] = tested on: Pasteurella multocida; assay: Treatment of Pasteurella infections in chicks (Table V); format: in vivo, one-day-old chicks; details: 30 mg/kg by subcutaneous injection one and four hours post challenge; for mortality at 30 mg/kg: Pasteurella multocida, sc, 4 h, read-out: Deaths in Treated Chicks/Number Treated (converted)
# Outline: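 One-day-old chicks challenged subcutaneously with avian P. multocida (0.1 ml of 10^-3 dilution of 20-hour tryptose broth culture). Esters given at 30 mg/kg subcutaneously at 1 and 4 hours post challenge. Untreated infected controls, ten per group.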
# [26] = tested on: Haemophilus influenzae R252; assay: MIC, standard agar-dilution assay (Table II); format: cell-based; design: unit not given here; details: Haemophilus influenzae R252, ampicillin-resistant strain
# Procedure: as §1
# [27] = tested on: Haemophilus influenzae Holt; assay: MIC, standard agar-dilution assay (Table II); format: cell-based; design: unit not given here; details: ampicillin-sensitive strain
# Procedure: as §1
# [28] = C203, oral, read-out: ED50, Oral
# [29] = C203, sc, subcutaneous, read-out: ED50, Subcutaneous
SMILES,"ED50 [1, 28]","ED50 [1, 29]",minimal inhibitory concentration (MIC) [2],minimal inhibitory concentration (MIC) [3],minimal inhibitory concentration (MIC) [4],minimal inhibitory concentration (MIC) [5],minimal inhibitory concentration (MIC) [6],minimal inhibitory concentration (MIC) [7],minimal inhibitory concentration (MIC) [8],minimal inhibitory concentration (MIC) [9],minimal inhibitory concentration (MIC) [10],minimal inhibitory concentration (MIC) [11],minimal inhibitory concentration (MIC) [12],minimal inhibitory concentration (MIC) [13],minimal inhibitory concentration (MIC) [14],minimal inhibitory concentration (MIC) [16],minimal inhibitory concentration (MIC) [18],minimal inhibitory concentration (MIC) [19],minimal inhibitory concentration (MIC) [20],minimal inhibitory concentration (MIC) [24],also measured
"CCC1OC(=O)CC(O)C(C)C(OC2OC(C)C(O)C(N(C)C)C2O)C(CC=O)CC(C)C(=O)C=CC(C)=CC1COC(=O)Cc1cccnc1 (stereo not shown) [Compound 44, 23-O-(3-Pyridylacetyl)-OMT]",150 mg/kg,13 mg/kg,0.25,0.125,0.125,0.125,0.125,0.015,0.25,0.03,0.25,0.25,0.78,3.12,0.78,3.12,0.78,0.39,< 0.05,0.39,minimal inhibitory concentration (MIC) [15]: 3.12; minimal inhibitory concentration (MIC) [17]: 3.12; minimal inhibitory concentration (MIC) [21]: 3.12; minimal inhibitory concentration (MIC) [22]: 6.25; minimal inhibitory concentration (MIC) [23]: 6.25; mortality at 30 mg/kg [25]: 0%
"CCC1OC(=O)CC(O)C(C)C(OC2OC(C)C(OC(C)=O)C(N(C)C)C2OC(C)=O)C(CC=O)CC(C)C(=O)C=CC(C)=CC1COC(=O)c1ccccc1 (stereo not shown) [Compound 6, 23-O-Benzoyl-2',4'-Di-O-acetyl-OMT]",146 mg/kg,> 30 mg/kg,0.25,0.25,0.25,0.5,0.25,0.125,–,0.06,0.25,0.25,< 0.05,0.78,0.39,1.56,0.78,0.195,0.39,0.39,minimal inhibitory concentration (MIC) [26]: 2; minimal inhibitory concentration (MIC) [27]: 2; minimal inhibitory concentration (MIC) [17]: 1.56; minimal inhibitory concentration (MIC) [21]: 6.25; minimal inhibitory concentration (MIC) [22]: 3.12; minimal inhibitory concentration (MIC) [23]: 3.12; mortality at 30 mg/kg [25]: 80%
"CCC1OC(=O)CC(O)C(C)C(OC2OC(C)C(O)C(N(C)C)C2O)C(CC=O)CC(C)C(=O)C=CC(C)=CC1COP(=O)(Oc1ccccc1)Oc1ccccc1 (stereo not shown) [Compound 48, 23-O-(Diphenylphosphoryl)-OMT]",–,–,0.25,0.25,0.25,0.25,0.25,0.125,0.25,0.03,0.25,0.25,0.78,6.25,0.78,6.25,6.25,0.195,0.78,0.39,"ED50, Oral ([1]; oral): > 150 mg/kg × 2; ED50, Subcutaneous ([1]; subcutaneous): > 30 mg/kg × 2; minimal inhibitory concentration (MIC) [15]: 6.25; minimal inhibitory concentration (MIC) [17]: 6.25; minimal inhibitory concentration (MIC) [21]: 6.25; minimal inhibitory concentration (MIC) [22]: 12.5; minimal inhibitory concentration (MIC) [23]: 6.25; Deaths in Treated Chicks/Number Treated [25]: 10/10"
CCC1OC(=O)CC(O)C(C)C(OC2OC(C)C(O)C(N(C)C)C2O)C(CC=O)CC(C)C(=O)C=CC(C)=CC1COC(=O)CC(C)C (stereo not shown) [Compound 22],> 150 mg/kg,7.5 mg/kg,0.25,0.5,0.25,0.25,0.5,0.25,0.25,0.125,0.25,0.5,< 0.05,–,0.78,1.56,3.12,0.097,< 0.05,0.78,minimal inhibitory concentration (MIC) [26]: 4; minimal inhibitory concentration (MIC) [27]: 2; mortality at 30 mg/kg [25]: 10%
CCC1OC(=O)CC(O)C(C)C(OC2OC(C)C(O)C(N(C)C)C2OC(C)=O)C(CC=O)CC(C)C(=O)C=CC(C)=CC1COC(=O)Cc1ccccc1 (stereo not shown) [Compound 28],155 mg/kg,6.5 mg/kg,0.125,0.125,0.125,0.125,0.125,0.125,0.125,0.015,0.125,0.25,< 0.05,0.78,1.56,1.56,0.78,< 0.05,< 0.05,0.195,minimal inhibitory concentration (MIC) [26]: 1; minimal inhibitory concentration (MIC) [27]: 1; minimal inhibitory concentration (MIC) [17]: 3.12; minimal inhibitory concentration (MIC) [21]: 6.25; minimal inhibitory concentration (MIC) [22]: 3.12; minimal inhibitory concentration (MIC) [23]: 3.12; mortality at 30 mg/kg [25]: 80%
"CCC1OC(=O)CC(O)C(C)C(OC2OC(C)C(O)C(N(C)C)C2O)C(CC=O)CC(C)C(=O)C=CC(C)=CC1COC(=O)c1ccccc1 (stereo not shown) [Compound 26, 23-O-Benzoyl-OMT]",136 mg/kg,10.6 mg/kg,0.25,0.25,0.25,0.5,0.25,0.125,0.25,0.06,0.25,0.5,< 0.05,1.56,0.39,1.56,0.78,0.195,0.39,0.39,minimal inhibitory concentration (MIC) [26]: 2; minimal inhibitory concentration (MIC) [27]: 2; minimal inhibitory concentration (MIC) [17]: 1.56; minimal inhibitory concentration (MIC) [21]: 6.25; minimal inhibitory concentration (MIC) [22]: 3.12; minimal inhibitory concentration (MIC) [23]: 6.25; mortality at 30 mg/kg [25]: 100%
